According to patent US20090214529A9, “KINESIN INHIBITORS” (TaiGen Biotechnology Co., Ltd., priority 2007, published 2009):

Test system: tumor cell
Experiment: Cytotoxicity assay (MTS)
Format: cell-based
Conditions: 72 h; incubation for three days; read-out: IC50, tumor cell growth inhibition (MTS)
Summary of the method: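 Tumour cells seeded overnight, then exposed to varying compound concentrations for three days. Viability read by MTS/PMS conversion to formazan (2 h, 37 °C, absorbance 490 nm). Results given as blank-corrected T/C (%) against vehicle controls.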

Row | SMILES | IC50 [µM]
1 | CCC(c1nn2c(cc3ccccc32)c(=O)n1Cc1ccccc1)N(CCCN)C(=O)c1ccc(C)cc1 (centres unmarked) [Compound 159] | < 30
2 | Cc1ccc(C(=O)N(CCN)C(c2nc3c(oc4ccccc43)c(=O)n2Cc2ccc(Cl)s2)C(C)C)cc1 (centres unmarked) [Compound 160] | < 30
3 | Cc1ccc(C(=O)N(CCN)C(c2nc3c(oc4ccccc43)c(=O)n2Cc2cc(C)cs2)C(C)C)cc1 (centres unmarked) [Compound 161] | < 30
4 | Cc1ccc(C(=O)N(CCN)C(c2nc3c(oc4ccccc43)c(=O)n2Cc2ccc(Cl)o2)C(C)C)cc1 (centres unmarked) [Compound 162] | < 30
5 | Cc1ccc(C(=O)N(CCN)C(c2nc3c(oc4ccccc43)c(=O)n2Cc2ccc(C#N)s2)C(C)C)cc1 (centres unmarked) [Compound 163] | < 30
6 | Cc1ccc(C(=O)N(CCN)C(c2nc3c(oc4ccccc43)c(=O)n2Cc2ccc(Br)s2)C(C)C)cc1 (centres unmarked) [Compound 164] | < 30
7 | Cc1ccc(C(=O)N(CCN)C(c2nc3c(oc4ccccc43)c(=O)n2Cc2ccc(Br)o2)C(C)C)cc1 (centres unmarked) [Compound 165] | < 30
8 | Cc1csc(Cn2c(C(C(C)C)N(CCN)C(=O)c3ccc(Cl)cc3)nc3c(oc4ccc(F)cc43)c2=O)c1 (centres unmarked) [Compound 166] | < 30
9 | Cc1csc(Cn2c(C(C(C)C)N(CCN)C(=O)c3ccc(Br)cc3)nc3c(oc4ccc(F)cc43)c2=O)c1 (centres unmarked) [Compound 167] | < 30
10 | CC(C)C(c1nc2c(oc3ccc(F)cc32)c(=O)n1Cc1ccc(Cl)o1)N(CCN)C(=O)c1ccc(Cl)cc1 (centres unmarked) [Compound 169] | < 30
11 | CC(C)C(c1nc2c(oc3ccc(F)cc32)c(=O)n1Cc1ccc(Cl)o1)N(CCN)C(=O)c1ccc(Br)cc1 (centres unmarked) [Compound 170] | < 30
12 | CC(C)C(c1nc2c(oc3ccc(F)cc32)c(=O)n1Cc1ccc(Cl)o1)N(CCN)C(=O)c1ccc(C(F)(F)F)cc1 (centres unmarked) [Compound 171] | < 30
13 | CC(C)C(c1nc2c(oc3ccc(F)cc32)c(=O)n1Cc1ccc(C#N)s1)N(CCN)C(=O)c1ccc(Cl)cc1 (centres unmarked) [Compound 172] | < 30
14 | CC(C)C(c1nc2c(oc3ccc(F)cc32)c(=O)n1Cc1ccc(C#N)s1)N(CCN)C(=O)c1ccc(Br)cc1 (centres unmarked) [Compound 173] | < 30
15 | Cc1ccc(C(=O)N(CCN)C(c2nc3c(oc4ccc(F)cc43)c(=O)n2Cc2ccc(C#N)s2)C(C)C)cc1F (centres unmarked) [Compound 174] | < 30
16 | Cc1ccc(C(=O)N(CCCN)[C@@H](c2nc3c(oc4ccccc43)c(=O)n2Cc2ccccc2)C(C)C)cc1 [Compound 175] | < 30
17 | Cc1csc(Cn2c([C@@H](C(C)C)N(CCN)C(=O)c3ccc(C)c(F)c3)nc3c(oc4ccc(F)cc43)c2=O)c1 [Compound 176] | < 30
18 | Cc1ccc(C(=O)N(CCN)[C@@H](c2nc3c(oc4ccc(F)cc43)c(=O)n2Cc2cc(C#N)cs2)C(C)C)cc1 [Compound 178] | < 30
19 | Cc1ccc(C(=O)N(CCN)[C@@H](c2nc3c(oc4ccc(F)cc43)c(=O)n2Cc2cc(C)cs2)C(C)C)cc1 [Compound 179] | < 30
20 | Cc1ccc(Cn2c([C@@H](C(C)C)N(CCN)C(=O)c3ccc(C)cc3)nc3c(oc4ccc(F)cc43)c2=O)cc1 [Compound 180] | < 30
21 | Cc1csc(Cn2c([C@@H](C(C)C)N(CCN)C(=O)c3ccc(Cl)cc3)nc3c(oc4ccc(F)cc43)c2=O)c1 [Compound 181] | < 30

Row | SMILES | IC50 [µM]
22 | Cc1ccc(C(=O)N(CCN)[C@@H](c2nc3c(oc4ccc(F)cc43)c(=O)n2Cc2ccc(Cl)s2)C(C)C)cc1 [Compound 182] | < 30
23 | Cc1ccc(C(=O)N(CCN)[C@@H](c2nc3c(oc4ccc(F)cc43)c(=O)n2Cc2ccc(Br)s2)C(C)C)cc1 [Compound 183] | < 30
24 | Cc1ccc(Cn2c([C@@H](C(C)C)N(CCN)C(=O)c3ccc(Cl)cc3)nc3c(oc4ccc(F)cc43)c2=O)cc1 [Compound 184] | < 30
25 | Cc1ccc(C(=O)N(CCN)[C@@H](c2nc3c(oc4ccc(F)cc43)c(=O)n2Cc2ccco2)C(C)C)cc1 [Compound 185] | < 30
26 | Cc1ccc(C(=O)N(CCN)[C@@H](c2nc3c(oc4ccc(F)cc43)c(=O)n2Cc2ccco2)C(C)C)cc1F [Compound 186] | < 30
27 | Cc1ccc(C(=O)N(CCN)[C@@H](c2nc3c(oc4ccc(F)cc43)c(=O)n2Cc2cccc(F)c2)C(C)C)cc1 [Compound 187] | < 30
28 | Cc1ccc(C(=O)N(CCN)[C@@H](c2nc3c(oc4ccc(F)cc43)c(=O)n2Cc2cccc(F)c2)C(C)C)cc1F [Compound 188] | < 30
29 | Cc1ccc(C(=O)N(CCN)[C@@H](c2nc3c(oc4ccc(F)cc43)c(=O)n2Cc2ccc(Cl)o2)C(C)C)cc1 [Compound 189] | < 30
30 | Cc1ccc(C(=O)N(CCN)[C@@H](c2nc3c(oc4ccc(F)cc43)c(=O)n2Cc2ccc(Cl)o2)C(C)C)cc1F [Compound 190] | < 30
31 | Cc1ccc(C(=O)N(CCN)[C@@H](c2nc3c(oc4ccc(F)cc43)c(=O)n2Cc2ccccc2)C(C)C)cc1 [Compound 191] | < 30
32 | Cc1ccc(C(=O)N(CCN)[C@@H](c2nc3c(oc4ccc(F)cc43)c(=O)n2Cc2ccccc2)C(C)C)cc1F [Compound 192] | < 30
33 | CC(C)[C@H](c1nc2c(oc3ccc(F)cc32)c(=O)n1Cc1ccccc1)N(CCN)C(=O)c1ccc(Cl)cc1 [Compound 193] | < 30
34 | Cc1ccc(C(=O)N(CCN)[C@@H](c2nc3c(oc4ccc(F)cc43)c(=O)n2Cc2ccsc2)C(C)C)cc1 [Compound 194] | < 30
35 | Cc1ccc(C(=O)N(CCN)[C@@H](c2nc3c(oc4ccc(F)cc43)c(=O)n2Cc2ccsc2)C(C)C)cc1F [Compound 195] | < 30
36 | Cc1ccc(C(=O)N(CCN)[C@@H](c2nc3c(oc4ccc(F)cc43)c(=O)n2Cc2ccoc2)C(C)C)cc1 [Compound 196] | < 30
37 | Cc1ccc(C(=O)N(CCN)[C@@H](c2nc3c(oc4ccc(F)cc43)c(=O)n2Cc2ccoc2)C(C)C)cc1F [Compound 197] | < 30
38 | CC(C)[C@H](c1nc2c(oc3ccc(F)cc32)c(=O)n1Cc1ccoc1)N(CCN)C(=O)c1ccc(Cl)cc1 [Compound 198] | < 30
39 | Cc1ccc(C(=O)N(CCN)[C@@H](c2nc3c(oc4ccc(F)cc43)c(=O)n2Cc2cccs2)C(C)C)cc1 [Compound 199] | < 30
40 | Cc1ccc(C(=O)N(CCN)[C@@H](c2nc3c(oc4ccc(F)cc43)c(=O)n2Cc2cccs2)C(C)C)cc1F [Compound 200] | < 30
41 | CC(C)[C@H](c1nc2c(oc3ccc(F)cc32)c(=O)n1Cc1cccs1)N(CCN)C(=O)c1ccc(Br)cc1 [Compound 201] | < 30
42 | CC(C)[C@H](c1nc2c(oc3ccc(F)cc32)c(=O)n1Cc1ccsc1)N(CCN)C(=O)c1ccc(Br)cc1 [Compound 202] | < 30

Row | SMILES | IC50 [µM]
43 | CC(C)[C@H](c1nc2c(oc3ccc(F)cc32)c(=O)n1Cc1cccc(F)c1)N(CCN)C(=O)c1ccc(Br)cc1 [Compound 203] | < 30
44 | CC(C)[C@H](c1nc2c(oc3ccc(F)cc32)c(=O)n1Cc1ccc(Cl)o1)N(CCN)C(=O)c1ccc(Br)cc1 [Compound 204] | < 30
45 | CC(C)[C@H](c1nc2c(oc3ccc(F)cc32)c(=O)n1Cc1ccccc1)N(CCN)C(=O)c1ccc(Br)cc1 [Compound 205] | < 30
46 | Cc1ccc(C(=O)N(CCN)[C@@H](c2nc3c(oc4ccc(F)cc43)c(=O)n2Cc2ccccc2)C(C)C)c(F)c1F [Compound 206] | < 30
47 | CC(C)[C@H](c1nc2c(oc3ccc(F)cc32)c(=O)n1Cc1ccccc1)N(CCN)C(=O)c1ccc(C(F)(F)F)cc1 [Compound 207] | < 30
48 | Cc1ccc(C(=O)N(CCN)[C@@H](c2nc3c(oc4ccc(F)cc43)c(=O)n2Cc2ccc(Br)s2)C(C)C)c(F)c1F [Compound 209] | < 30
49 | CC(C)[C@H](c1nc2c(oc3ccc(F)cc32)c(=O)n1Cc1ccc(Br)s1)N(CCN)C(=O)c1ccc(Br)cc1 [Compound 210] | < 30
50 | Cc1ccc(C(=O)N(CCCN)[C@@H](c2nc3c(oc4ccc(F)cc43)c(=O)n2Cc2cc(C)cs2)C(C)C)cc1 [Compound 211] | < 30
51 | Cc1ccc(C(=O)N(CCN)[C@@H](c2nc3c(oc4ccc(F)cc43)c(=O)n2Cc2ccc(C(F)(F)F)o2)C(C)C)cc1 [Compound 213] | < 30
52 | Cc1ccc(C(=O)N(CCN)[C@@H](c2nc3c(oc4ccc(F)cc43)c(=O)n2Cc2ccc(C(F)(F)F)o2)C(C)C)cc1F [Compound 214] | < 30
53 | Cc1ccc(C(=O)N(CCN)[C@@H](c2nc3c(oc4ccc(F)cc43)c(=O)n2Cc2cc(Br)cs2)C(C)C)cc1 [Compound 215] | < 30
54 | Cc1ccc(C(=O)N(CCN)[C@@H](c2nc3c(oc4ccc(F)cc43)c(=O)n2Cc2cc(Br)co2)C(C)C)cc1 [Compound 217] | < 30
55 | Cc1ccc(C(=O)N(CCN)[C@@H](c2nc3c(oc4ccc(F)cc43)c(=O)n2Cc2cc(Br)co2)C(C)C)cc1F [Compound 218] | < 30
56 | Cc1ccc(C(=O)N(CCN)[C@@H](c2nc3c(oc4ccc(F)cc43)c(=O)n2Cc2ccc(I)s2)C(C)C)cc1 [Compound 219] | < 30
57 | CC[C@@H](C)[C@H](c1nc2c(oc3ccc(F)cc32)c(=O)n1Cc1ccc(Br)o1)N(CCN)C(=O)c1ccc(C)cc1 [Compound 220] | < 30
58 | Cc1ccc(C(=O)N(CCN)[C@@H](c2nc3c(oc4ccc(F)cc43)c(=O)n2Cc2cc(C)cs2)C2CC2)cc1 [Compound 222] | < 30
59 | Cc1ccc(C(=O)N(CCN)[C@@H](c2nc3c(oc4ccc(F)cc43)c(=O)n2Cc2ccc(Br)o2)C2CC2)cc1 [Compound 223] | < 30
60 | Cc1ccc(C(=O)N(CCN)[C@@H](c2nc3c(oc4ccc(F)cc43)c(=O)n2Cc2ccc(Cl)o2)C2CC2)cc1 [Compound 224] | < 30
61 | Cc1ccc(C(=O)N(CCN)[C@@H](c2nc3c(oc4ccc(F)cc43)c(=O)n2Cc2ccccc2)C2CC2)cc1 [Compound 225] | < 30
62 | Cc1ccc(C(=O)N(CCN)[C@@H](c2nc3c(oc4ccc(F)cc43)c(=O)n2Cc2cccs2)C2CC2)cc1 [Compound 226] | < 30
